Results published in the NIST ThermoML archive (doi:10.1021/je030147g).

Assays:
[1] = refractive index (Na D-line) (dimensionless); xn = mol fraction of the nth substance listed; conditions: 101.33 kPa, Liquid
[2] = xn = mol fraction of the nth substance listed; conditions: 101.33 kPa, Liquid

CCCCCCCCCCCCCC [tetradecane] + CCCCN(CCCC)CCCC
x2 = 0
Conditions	mass density, 298.15 K [kg/m3]	mass density, 303.15 K [kg/m3]	mass density, 308.15 K [kg/m3]	refractive index, 298.15 K	refractive index, 303.15 K	refractive index, 308.15 K	speed of sound, 298.15 K [m/s]	viscosity, 298.15 K [mPa·s]	viscosity, 303.15 K [mPa·s]	viscosity, 308.15 K [mPa·s]
[1]	–	–	–	1.4282	1.426	1.4236	–	–	–	–
[2]	760.7	757	753.3	–	–	–	1315	2.032	1.827	1.653

CCCCN(CCCC)CCCC [tributylamine] + CCN(CC)CC
Conditions	mass density, 298.15 K [kg/m3]	mass density, 303.15 K [kg/m3]	mass density, 308.15 K [kg/m3]	refractive index, 298.15 K	refractive index, 303.15 K	refractive index, 308.15 K	speed of sound, 298.15 K [m/s]	viscosity, 298.15 K [mPa·s]	viscosity, 303.15 K [mPa·s]	viscosity, 308.15 K [mPa·s]
[1], x1 = 0.1072	–	–	–	1.4052	1.4031	1.4012	–	–	–	–
[1], x1 = 0.2039	–	–	–	1.4104	1.4079	1.4054	–	–	–	–
[1], x1 = 0.3083	–	–	–	1.4131	1.4116	1.4102	–	–	–	–
[1], x1 = 0.4066	–	–	–	1.4164	1.4144	1.4122	–	–	–	–
[1], x1 = 0.5029	–	–	–	1.4208	1.4178	1.4148	–	–	–	–
[1], x1 = 0.5905	–	–	–	1.4218	1.4194	1.4169	–	–	–	–
[1], x1 = 0.6928	–	–	–	1.4238	1.4213	1.4189	–	–	–	–
[1], x1 = 0.7914	–	–	–	1.4256	1.423	1.4204	–	–	–	–
[1], x1 = 0.8942	–	–	–	1.4265	1.4241	1.4217	–	–	–	–
[1], x1 = 1	–	–	–	1.4276	1.4255	1.4228	–	–	–	–
[2], x1 = 0.1072	732	727.3	722.8	–	–	–	1143	0.433	0.411	0.388
[2], x1 = 0.2039	739.2	734.6	730.2	–	–	–	1160	0.491	0.464	0.438
[2], x1 = 0.3083	745.9	741.4	737.1	–	–	–	1179	0.567	0.533	0.499
[2], x1 = 0.4066	751.5	747.2	742.9	–	–	–	1196	0.643	0.602	0.561
[2], x1 = 0.5029	756.4	752.2	747.9	–	–	–	1210	0.719	0.672	0.625
[2], x1 = 0.5905	760.2	756	751.8	–	–	–	1221	0.801	0.746	0.688
[2], x1 = 0.6928	763.7	759.5	755.4	–	–	–	1232	0.899	0.833	0.767
[2], x1 = 0.7914	767.1	763	758.9	–	–	–	1236	1.003	0.923	0.844
[2], x1 = 0.8942	770.6	766.5	762.4	–	–	–	1246	1.118	1.026	0.934
[2], x1 = 1	773.9	769.2	765.7	–	–	–	1262	1.239	1.123	1.028

c1ccncc1 [pyridine] + CCCCN(CCCC)CCCC
x2 = 0
Conditions	mass density, 298.15 K [kg/m3]	mass density, 303.15 K [kg/m3]	mass density, 308.15 K [kg/m3]	refractive index, 298.15 K	refractive index, 303.15 K	refractive index, 308.15 K	speed of sound, 298.15 K [m/s]	viscosity, 298.15 K [mPa·s]	viscosity, 303.15 K [mPa·s]	viscosity, 308.15 K [mPa·s]
[1]	–	–	–	1.5062	1.5025	1.5016	–	–	–	–
[2]	979	973.7	968.6	–	–	–	1412	0.885	0.82	0.766

CCCCN(CCCC)CCCC [tributylamine] + ClC(Cl)=C(Cl)Cl
Conditions	mass density, [2] [kg/m3]	refractive index, [1]	speed of sound, [2] [m/s]	viscosity, [2] [mPa·s]
298.15 K, x1 = 0.104	1433.8	1.4872	1052	0.917
298.15 K, x1 = 0.2059	1295.5	1.4748	1073	0.958
298.15 K, x1 = 0.3068	1185.4	1.4659	1094	0.996
298.15 K, x1 = 0.4073	1095	1.4566	1116	1.033
298.15 K, x1 = 0.4967	1026.9	1.4506	1136	1.065
298.15 K, x1 = 0.6069	955.4	1.4437	1162	1.104
298.15 K, x1 = 0.699	904.2	1.4396	1184	1.136
298.15 K, x1 = 0.8018	854.3	1.435	1209	1.172
298.15 K, x1 = 0.9007	812	1.4316	1235	1.206
298.15 K, x1 = 1	773.9	1.4276	1262	1.239
303.15 K, x1 = 0.104	1425.9	1.4842	–	0.869
303.15 K, x1 = 0.2059	1288.1	1.4721	–	0.902
303.15 K, x1 = 0.3068	1181.4	–	–	0.93
303.15 K, x1 = 0.4073	1089.1	1.4539	–	0.96
303.15 K, x1 = 0.4967	1021.5	1.4479	–	0.99
303.15 K, x1 = 0.6069	949.9	1.4415	–	1.018
303.15 K, x1 = 0.699	899.4	1.4367	–	1.053
303.15 K, x1 = 0.8018	849.4	1.4325	–	1.081
303.15 K, x1 = 0.9007	808	1.4289	–	1.104
303.15 K, x1 = 1	769.2	1.4255	–	1.124
308.15 K, x1 = 0.104	1418.2	1.481	–	0.818
308.15 K, x1 = 0.2059	1281.3	1.4692	–	0.844
308.15 K, x1 = 0.3068	1172.5	1.4594	–	0.869
308.15 K, x1 = 0.4073	1083.2	1.451	–	0.893
308.15 K, x1 = 0.4967	1015.9	1.445	–	0.914
308.15 K, x1 = 0.6069	945.2	1.4392	–	0.94
308.15 K, x1 = 0.699	894.7	1.434	–	0.961
308.15 K, x1 = 0.8018	845.3	1.4298	–	0.984
308.15 K, x1 = 0.9007	803.4	1.4263	–	1.006
308.15 K, x1 = 1	765.7	1.4228	–	1.028

C1CCOC1 [tetrahydrofuran] + CCCCN(CCCC)CCCC
x2 = 0
Conditions	mass density, 298.15 K [kg/m3]	mass density, 303.15 K [kg/m3]	mass density, 308.15 K [kg/m3]	refractive index, 298.15 K	refractive index, 303.15 K	refractive index, 308.15 K	speed of sound, 298.15 K [m/s]	viscosity, 298.15 K [mPa·s]	viscosity, 303.15 K [mPa·s]	viscosity, 308.15 K [mPa·s]
[1]	–	–	–	1.4049	1.4026	1.3998	–	–	–	–
[2]	882.9	877.5	871.2	–	–	–	1288	0.485	0.46	0.439
